Consider four molecules from patent publication US20100055065A1, “AGENT FOR INHIBITING PRODUCTION OF HEPATITIS C VIRUS AND ITS USE” (MIYAZAKI PREFECTURAL INDUSTRIAL SUPPORT FOUNDATION, priority 2008, published 2010).

Data set [1] in a line: Cytotoxicity test (Cell Counting Kit-8). The class given is cell-based, human. Conditions: human; HCV replicon cells; Table 1. As to the method: (§1) The cytotoxicity of the samples was measured by Cell Counting Kit-8 (CCK-8; Dojindo Molecular Technologies) according to the manufacture's instructions. Briefly, 10 μl/a well of CCK-8 reagent were added to the HCV replicon cells cultured in a 96-well plate and then incubated at 37° C. for 60 min. The absorbance of each well was measured at 450 nm with a reference wavelength at 650 nm using an Emax Precision microplate reader (Molecular Devices Inc.). Cell viability was calculated as relative index of control cells and effects of samples and was expressed as the concentration of samples required for 50% cytotoxicity of the cells (CC50).

Data set [2] relates to HCV replicon. Nature of the data set: HCV replication suppressive activity test (replicon assay, luciferase). Format: cell-based, Hepatitis C virus. The conditions noted are these: for HCV replication suppressive (inhibitory) activity, in words: replicon cell assay. As to the method: The HCV-replicon cell line was established by transducing sub-genomic RNA into human hepatoma Huh-7 cell cytoplasm. The sub-genomic RNA was prepared by replacing the translated region of HCV genome RNA structural proteins with firefly luciferase gene, internal ribosome entry site (IRES) of the encephalomyocarditis virus and neomycin phosphotransferase gene. The cell line obtained was used for assessment of production of HCV replicon RNA. The production quantity of HCV replicon RNA was measured by the luciferase assay method. (Lohmann et al., Science 285, (1999) 110; Sakamoto et al. Nat. Chem. Biol. 1, (2005) 333)
In order to determine replication quantity of HCV-RNA, luciferase genes from firefly were transduced into HCV-RNA as a reporter gene. The gene transduction was carried out according to the method of Krieger et al. (See; Krieger et al. J. virol. 75, (2001) 4614) in such manner that luciferase genes were fused together neomycin-resistant genes beneath the IRES of HCV gene.
With this HCV subgenome, the replication efficiency of HCV could be estimated by measuring luciferase activity in the HCV replicon cells. The HCV replicon cells used were routinely grown in DMEM (Gibco cat. No. 10569-010) supplemented with Glutamax (Invitrogen), 10% fetal bovine serum (FBS), 1% penicillin/streptomycin (Invitrogen) and 500 μg/ml G418 (Invitrogen). The cells were maintained at 37° C. in humidified atmosphere containing 5% CO2. For the HCV replication assay, the replicon cells in DMEM supplemented with Glutamax and 5% FBS were seeded in a 96-well plate so as to fill every well with 5000 cells, and incubated for 24 hours.
The test was carried out in such a way that the HCV replicon cells were cultured for 72 hours after adding test samples in different concentrations. The Quantity of the luciferase activity was determined by the Steady-Glo Luciferase Assay System (Promega) according to the manufacture's instructions and the luminescence was measured by DTX 800 Multimode Detector (Beckman). In this test, the replication inhibitory activity is expressed as a concentration of samples required for inhibiting 50 percents of the replication of HCV replicon cell (IC50). Specific activity is a reciprocal number of IC50 (1/IC50). Total activity is calculated by multiplying the yield weight of the HCV replicon cell by specific activity.

Data set [3] deals with HCV replicon cells (human hepatoma Huh-7). Nature of the data set: Cytotoxicity test (Cell Counting Kit-8). Format: cell-based. The conditions noted are these: Table 1. How it is done:
as §1

Where [4] appears, read: HCV replicon cells, 72 hours, Table 1.

In brackets after ≈: the same amount, converted by molar mass.

Take `Oc1cc(O)c2c(c1)O[C@H](c1ccc(O)c(O)c1)[C@H](O)C2` [Epicatechin]: the CC50 in data set [1] turned out to be 114 mg/L (≈ 392 µM). For the same molecule, inhibition in data set [2] (Hepatitis C virus, HCV replicon cells, 72 hours, Table 1) was half-maximal at 27.3 mg/L (≈ 94.1 µM) (IC50). The “Ratio CC50/IC50” value in data set [2] (Table 1) was found to be 4.2.

Regarding `Oc1cc(O)c2c(c1)O[C@H](c1ccc(O)c(O)c1)[C@H](O)[C@H]2c1c(O)cc(O)c2c1O[C@H](c1ccc(O)c(O)c1)[C@H](O)C2` [Procyanidin B2], the “Cytotoxicity CC50” value in data set [3] is greater than 25.0 mg/L. Moreover, the “Replication suppressive activity IC50” value in data set [2] (setting [4]) is greater than 25.0 mg/L. The “HCV replication suppressive (inhibitory) activity, in words” value in data set [2] is on record as “no anti-HCV production activity”.

As to `O=C(/C=C/c1ccc(O)c(O)c1)O[C@@H]1C[C@](O)(C(=O)O)C[C@@H](O)[C@H]1O` [chlorogenic acid], in data set [2], the “HCV replication suppressive (inhibitory) activity, in words” value is on record as “seem not to have the inhibition activity”.

As to Catechin, the “Replication suppressive activity IC50” value in data set [2] (setting [4]) is 16.18 mg/L. For the same molecule, the “Ratio CC50/IC50” value in data set [2] (Table 1) is given as 6.2. Moreover, the “HCV replication suppressive (inhibitory) activity, in words” value in data set [2] is listed as “no anti-HCV production activity”.
